The results in this text go back to US7238716B2, “Alkanoic acid derivatives process for their production and use thereof” (Takeda Pharmaceuticals Company Limited, priority 2000, dated 2007).

For orientation: inhibition in vivo means how much of the control response was suppressed. For orientation: melting point means the temperature of the solid-liquid transition.

Data set [1] relates to KKA^y mice. The experiment in a line: Total cholesterol lowering action and plasma anti-arteriosclerosis index enhancing action in mice (Test Example 2). It is filed as in vivo. The following applies: Mus musculus, po, 96 h, 0.005% in powdery diet, four days; for change in vivo at 0.005 %: percent increase of [(HDL cholesterol/total cholesterol)×100] vs non-administration group; for inhibition in vivo at 0.005 %: percent reduction of plasma total cholesterol level vs non-administration group. The source says: Test compounds were mixed in a powdery diet (CE-2, Japan Clea) the concentration of 0.01% (compounds of Examples 7, 26, 29 and 32) or 0.005% (compounds of Examples 1, 11, 15, 18, 24, 36, 37, 41, 48, 50, 51, 52, 58, 62, 79, 88, 91, 92, 93, 97, 107, 110, 129 and 130), and freely given to KKA^y mice (11 to 12 weeks old, 5 mice per group), a model of type-2 diabetes mellitus, for four days. During this period, water was given freely. Blood was sampled from orbital venous plexus and components were analyzed using the plasma separated from the blood. Total cholesterol levels were determined by using L type Wako Cholesterol (Wako Pure Chemical Industries, Ltd). Precipitation reagent for HDL cholesterol (Wako Pure Chemical Industries, Ltd.) was added to a part of the plasma to precipitate non-HDL lipoprotein, and cholesterol (HDL cholesterol) in the resulting supernatant was determined. The plasma anti-arteriosclerosis index [(HDL cholesterol/total cholesterol)×100] was calculated by using these cholesterol levels.
In the Table, “Total cholesterol lowering action (%)” represents the percent reduction (%) of total cholesterol level in the test compound administration group, when the total cholesterol level in the test compound non-administration group is taken as 100%. “Plasma anti-arteriosclerosis index-enhancing action (%)” represents the percent increase (%) of plasma anti-arteriosclerosis index in the test compound administration group, when the plasma anti-arteriosclerosis index in the test compound non-administration group is taken as 100%.

In the case of `Cc1oc(-c2ccccc2)nc1CCc1noc(COc2ccccc2CC(=O)O)n1` [Example 107, 2-[2-[[3-[2-(5-methyl-2-phenyl-4-oxazolyl)ethyl]-1,2,4-oxadiazol-5-yl]methoxy]phenyl]acetic acid], the melting point lay in the range of 120 to 121 °C. Further, in data set [1], the change in vivo at 0.005 % was 9% and the inhibition in vivo at 0.005 % was 13%.
As for `Cc1ccc(CC(=O)O)c(OCc2ccc(OCc3nc(-c4ccccc4)oc3C)cc2)n1` [Example 110, 2-[6-methyl-2-[4-[(5-methyl-2-phenyl-4-oxazolyl)methoxy]benzyloxy]-3-pyridyl]acetic acid], the melting point was in the range of 138 to 139 °C. Moreover, in data set [1], the change in vivo at 0.005 % was 24% and the inhibition in vivo at 0.005 % came out at 21%.
With `Cc1oc(-c2ccccc2)nc1COc1cc(COc2ncccc2CC(=O)O)on1` [Example 129, 2-[2-[[3-[(5-methyl-2-phenyl-4-oxazolyl)methoxy]-5-isoxazolyl]methoxy]-3-pyridyl]acetic acid], the melting point lay in the range of 129 to 130 °C. In data set [1], the change in vivo at 0.005 % worked out at 25% and the inhibition in vivo at 0.005 % worked out at 14%.
In the case of `Cc1oc(-c2ccc3ccccc3c2)nc1COc1ccc(COc2ncccc2CC(=O)O)cc1` [Example 130, 2-[2-[4-[5-methyl-2-(2-naphthyl)-4-oxazolylmethoxy]benzyloxy]-3-pyridyl]acetic acid], the melting point is 155 to 156 °C. For the same compound, in data set [1], the change in vivo at 0.005 % was determined as 15% and the inhibition in vivo at 0.005 % was determined as 16%.
